Values quoted from earlier work as cited in patent US20060104997A1, “Monoterpene compositions and uses thereof” (priority 2001, published 2006).

System: advanced N-methyl-N-nitrosourea-induced rat mammary carcinoma

Structure (SMILES): C=C(C)C1CC=C(CO)CC1 (stereo not shown) [perillyl alcohol, 1-hydroxymethyl-4-isopropenyl-1-cyclohexene]
- activity relative to limonene: approximately 5 fold
